Results reported in US20130143825A1, “COMPOUNDS FOR USE IN THE TREATMENT OF DISEASES BASED ON THE EXPRESSION OF TOXIC TRANSCRIPTS” (UNIVERSITAT DE VALENCIA, priority 2010, published 2013).
Non-standard residues stand in square brackets, D forms with d. Residues, ends and D or L forms follow the SMILES beside them. No end group written: not given here.

Tests used:
[1] = system: FVB wild strain mice; assay: Toxicity of p10 in mammals, intramuscular injection; format: in vivo
Experimental: In order to study the possible toxic effect of p10 in mammals and establishing the maximum tolerable dose for subsequent assays, the peptide was administered to mice from the FVB wild strain. Due to the low absorption of peptides by the intestinal walls, it was decided to perform intramuscular injections in the anterior tibial muscle of animals 4-5 weeks of age, using four different doses (0.5 μg, 1 μg, 10 μg and 100 μg), with a total of 6 mice per dose (3 females and 3 males). 4 weeks after the injection, the animals were sacrificed and a visual autopsy was performed, jointly with a histomorphological study of the muscle and a blood test (FIG. 31). As a control, animals injected with the same quantity of DMSO (0.2% for the 0.5-μg and 1-μg doses, and 2% for the 10-μg and 100-μg doses) were used.
However, the blood tests did show differences between the treated animals and the control. As a marker of renal activity, we measured the quantity of […], urea and creatinine in the blood. The creatine phosphokinase (CPK) enzyme was used as a marker of damage to the skeletal muscle and the heart, and alkaline phosphatase (AP), gamma-glutamyl transpeptidase (GGT) and glutamate pyruvate transaminase (GPT) were used as markers of hepatic damage. […] This could be due to the toxicity of DMSO or to the injection itself. […] Urea is the final result of protein metabolism. It is formed in the liver and eliminated in the urine. If the kidney is not functioning correctly, urea accumulates in the blood. GPT is an enzyme that is present in the liver at a high concentration and, to a lower extent, in the kidneys, the heart and the muscles. When there is an injury in these organs, the enzyme is released into the blood and appears high in tests. Moreover, it is worth noting that two of the mice treated with the 100-μg dose died approximately 11 days after the injection (p/i), which confirms the toxicity of p10 when it exceeds a threshold value. It was possible to extract blood from one of these two animals just before it died.

[2] = system: 103Y-Gal4/+;UAS-CTG(480)/+ flies; assay: Lethality phenotype in pupae caused by expression of 480 CTG under 103Y-Gal4 (females born); format: in vivo, Drosophila; set-up: key to Treated born/Control born: —: - indicates that no females were born, in neither the control tubes and the treated tubes; conditions: 80 μM; females born vs DMSO control; * p-value <0.05
Experimental: The 120 vials that make up the chemical library were individually assayed on the lethality phenotype in pupae caused by the expression of 480 CTG under the control of 103Y-Gal4 at a concentration of 80 μM. […] Thus, for positions O1, O2, O3, O4, O5 and O6 of the hexapeptide, a total of six, three, six, four, two and seven active amino acids were obtained, respectively (FIG. 2A). In order to perform the deconvolution, 10 of these 28 amino acids were selected, on the basis of their degree of activity in the biological assay (FIG. 2A). Finally, of the possible combinations, 16 sequences were selected to perform the synthesis of the defined hexapeptides (FIG. 2B). The selection of these 16 peptides was based on redundancy criteria between the physical and chemical properties of active amino acids in similar positions.
At 250 μM, the activity of the peptide decreased, possibly due to a toxic effect of the peptide at higher concentrations.
In order to determine the contribution of each of the p10 residues to their activity on CTG(480), an alanine scanning experiment was performed. These experiments are based on substituting every amino acid of the peptide with alanine and keeping the rest. Alanine is a small amino acid and, in general, not very active; this is why it is used for this type of studies. Since each alanine substitution examines the contribution of an individual amino acid, this experiment makes it possible, on the one hand, to evaluate whether p10 is susceptible to optimisation (in the event that a substitution increases the efficacy of the molecule), or to determine which amino acids are important for its function (in the event that a substitution decreases the activity thereof). The sequence of p10 allows for 5 substitutions; for this reason, 5 new hexapeptides were synthesised which were assayed in relation to the lethality phenotype in 103Y-Gal4; UAS-CTG(480)/+ flies and commercial food.

[3] = system: 103Y-Gal4/+;UAS-CTG(480)/+ flies; assay: as above; format: in vivo, Drosophila; set-up: key: —: - indicates that no females were born, in neither the control tubes and the treated tubes; conditions: females born vs DMSO control
[4] = system: 2-AP-(CUG)23 RNA; assay: 2-aminopurine fluorescence assay (hairpin opening); format: biochemical; conditions: 100 μM
Experimental: Measurements of the fluorescence emitted (Y-axis), measured as relative fluorescence units (RFU), by 2-aminopurine in a (CUG)23 RNA (1 μM) in the presence of MblZF (0.1 μM, 1 μM, 2 μM and 5 μM) (A) or p10 (0.1 μM, 1 μM, 2 μM, 5 μM and 100 μM) (B), relative to the fluorescence emitted by the free RNA. p10 caused a 2.9-increase in the fluorescence of 2-AP at 100 μM, which indicates a change towards single-stranded. This effect was not observed when incubating the RNA with DMSO, or with the alanine scanning peptides with sequences: ppyawa and payawe (C).
In order to confirm whether said changes cause a loss of the hairpin loop structure, an experiment was performed using an RNA composed of 23 CUG repeats, wherein a guanine had been substituted with its analogue 2-aminopurine (2-AP-(CUG)23). When 2-AP is in a single-stranded environment, it emits fluorescence at 375 nm. […] However, upon increasing the concentration of p10 to 100 μM (RNA:peptide 1:100), the 2AP-(CUG)23 RNA underwent a conformational change, from double-stranded to single-stranded, with a 2.9-fold increase in the fluorescence emission of the molecule (FIG. 28B). In order to confirm the specificity of this effect, the same experiment was performed, incubating the alanine scanning peptides (payawe and ppyawa) with the 2-AP-(CUG)23 RNA at the same concentration as p10 (100 μM).
As may be observed in FIG. 29, in this example we use the 2-aminopurine assay in order to assay 4 peptides (p11, p5, p12 and p15) in addition to p10, obtained from the deconvolution of the combinatorial peptide library explained in this invention. […] The concentration used in all cases is 100 μM.

[5] = system: GMR-Gal4 UAS-CTG(480) flies; assay: Endogenous expression of p10-derived peptides (Gal4/UAS), rough eye phenotype; format: in vivo, Drosophila
Description: Thus, three different transgenes were designed, with SEQ ID NO: 17-19 (p17-p19), which encoded different peptides, all based on sequence SEQ ID NO: 10 corresponding to p10 (FIG. 9), taking into consideration the codon usage bias in Drosophila (i.e. favouring the use of G, and in particular C, in the synonymous sites; Powell & Moriyama, 1997) and adding an initial Methionine, as well as three spacer Glycines, to sequence SEQ ID NO: 10. Moreover, upstream from the […] initiation codon, 21 nucleotides of the 5′UTR end of the act5C gene of Drosophila which included the Kozak sequence were added, in order to enhance the expression of the transgenes.
p17 contained the direct sequence of the peptide of SEQ ID NO: 10. As discussed above, the peptides in the hexapeptide chemical library are composed of D-amino acids. The D-forms (dextrogyre) of amino acids are stereoisomers of the L-forms (levogyres) and only L-amino acids are synthesised in the cells and incorporated into proteins. Consequently, if the arrangement of the lateral chains of p10 is important for the function thereof, the latter would be lost when p17 is synthesised by Drosophila from L-aa. For this reason, it was decided to generate construct p18, wherein the peptide sequence of SEQ ID NO: 10 was inverted, leading to a retro-inverse peptide (Chorev & Goodman, 1995; P. M. Fischer, 2003). At the time when these transgenes were generated, the smallest constructs described in the literature encoded peptides with more than 20 amino acids, which is more than twice the size of peptides p17 and p18 (which have only ten amino acids). For this reason, construct p19 was generated, which combined the constructs of peptides p17 and p18, leading to a peptide with 19 amino acids. The three constructs were microinjected in the precursors of the germinal line of Drosophila embryos, leading to 10 lines of transgenic flies for each transgene.
The transgenic flies obtained were crossed with the GMR-Gal4 UAS-CTG(480)/CyO and Mhc-Gal4 UAS-CTG(480)/TM6b recombinant fly lines generated during this invention, which directed the expression of the CTG repeats in the eye and the muscle, respectively. As in the case of the sev-Gal4 UAS-CTG(480)/+ flies, the adult GMR-Gal4 UAS-CTG(480)/UAS-GFP flies presented a strong rough eye phenotype. […] However, the opposite phenomenon occurred at 25° C. and at 29° C. […] Given that changes in temperature affect the expression of the CTG(480) transgenes and peptides p17-p19 in a different manner, since the latter are inserted in different regions of the genome, there may be a relation between the quantity of peptide and of repeats that must be reached, whereafter p10 becomes toxic.

[6] = 100-μg dose, one mouse just before it died

Which results are given for `C[C@@H](NC(=O)[C@@H](Cc1ccc(O)cc1)NC(=O)[C@H]1CCCN1C(=O)[C@H]1CCCN1)C(=O)N[C@H](Cc1c[nH]c2ccccc12)C(=O)N[C@H](CCC(=O)O)C(=O)O` [p10] (H-[dP][dP][dY][dA][dW][dE]-OH)?
visual autopsy and histological analysis of the muscles vs DMSO controls ([1]; 0.5, 1, 10, 100 μg i.m., 4 weeks after injection): did not reveal significant differences; urea and GPT in the blood vs controls ([1]; 10-μg and 100-μg doses i.m.): even higher values of urea and GPT; time of death after the injection ([1]; 100-μg dose): approximately 11 days; mice that died ([1]; 100-μg dose, 6 mice per dose): two; CPK in blood, times greater than the control with DMSO [1, 6]: 15 times; CPK in blood, times greater than the upper limit of the standard values [1, 6]: 28 times; urea, creatinine, CPK and GGT in the blood [1, 6]: extremely high values

For “p1: defined hexapeptide obtained following deconvolution of the D-amino acid combinatorial library ([dC][dP][dY][dA][dQ][dE])”, which “Treated born/Control born” value [2] is on record?
Its value is 0.3.

How did the “Treated born/Control born” value [2] turn out when “p2: defined hexapeptide obtained following deconvolution of the D-amino acid combinatorial library ([dC][dP][dY][dA][dW][dE])” was run?
Its value is “—”.

For “p3: defined hexapeptide obtained following deconvolution of the D-amino acid combinatorial library ([dC][dP][dY][dT][dQ][dE])”, which “Treated born/Control born” value [2] is on record?
The value was 0.8.

With “p4: defined hexapeptide obtained following deconvolution of the D-amino acid combinatorial library ([dC][dP][dY][dT][dW][dE])” as the compound, how does the “Treated born/Control born” value ([3]; 62 μM) read?
Its value is “—”.

Which “Treated born/Control born” value ([3]; 25 μM) does the source give for “p6: defined hexapeptide obtained following deconvolution of the D-amino acid combinatorial library ([dC][dQ][dY][dA][dW][dE])” here?
The value was “—”.

Which “Treated born/Control born” value [2] does the source give for “p7: defined hexapeptide obtained following deconvolution of the D-amino acid combinatorial library ([dC][dQ][dY][dT][dQ][dE])” here?
Its value is 1.4.

For “p8: defined hexapeptide obtained following deconvolution of the D-amino acid combinatorial library ([dC][dQ][dY][dT][dW][dE])”, which “Treated born/Control born” value ([3]; 57 μM) is on record?
The value was 0.9.

For “p9: defined hexapeptide obtained following deconvolution of the D-amino acid combinatorial library ([dP][dP][dY][dA][dQ][dE])”, which “Treated born/Control born” value [2] is on record?
Its value is 2.0.

Which “Treated born/Control born” value [2] does the source give for “p11: defined hexapeptide obtained following deconvolution of the D-amino acid combinatorial library ([dP][dP][dY][dT][dQ][dE])” here?
Its value is 0.8.

And the “destructuration of CUG23 probe, comparative 2-aminopurine assay” value [4]?
Its value is “significant levels of specificity and efficacy”.

How did the “Treated born/Control born” value [2] turn out when “p12: defined hexapeptide obtained following deconvolution of the D-amino acid combinatorial library ([dP][dP][dY][dT][dW][dE])” was run?
The value was 3.0.

And the “destructuration of CUG23 probe, comparative 2-aminopurine assay” value [4]?
The value was “significant levels of specificity and efficacy”.

How did the “Treated born/Control born” value [2] turn out when “p13: defined hexapeptide obtained following deconvolution of the D-amino acid combinatorial library ([dP][dQ][dY][dA][dQ][dE])” was run?
The value was 0.8.

For “p14: defined hexapeptide obtained following deconvolution of the D-amino acid combinatorial library ([dP][dQ][dY][dA][dW][dE])”, which “Treated born/Control born” value ([3]; 40 μM) is on record?
The value was 1.8.

With “p16: defined hexapeptide obtained following deconvolution of the D-amino acid combinatorial library ([dP][dQ][dY][dT][dW][dE])” as the compound, how does the “Treated born/Control born” value ([3]; 38.5 μM) read?
Its value is 0.4.

How did the “rough eye phenotype on co-expression with CTG(480)” value ([5]; 19° C. and 21° C.) turn out when “p17: endogenously expressed ten amino acid peptide: initial Methionine, three spacer Glycines and the direct sequence of p10 (MGGGPPYAWE)” was run?
Its value is “not”.

What about the “transgenic lines assayed that modified the phenotype of GMR-Gal4 UAS-CTG(480) flies” value ([5]; in vivo) of the same compound?
The value was “none of the five lines”.
